The text below walks through data of PMC8073907, “Peptide targeting of lysophosphatidylinositol-sensing GPR55 for osteoclastogenesis tuning” (Cell Communication and Signaling : CCS, 2021).

In assay [1] the target is human GPR55. To be noted: ref [38]; read-out: affinity towards human GPR55; cited from earlier work.
For assay [2], the system named is GPR55-silenced HeLa cells. Kind of assay: LPI-induced ERK1/2 and p38 phosphorylation in shGPR55-HeLa clones (Western blot). It is filed as cell-based, human. The conditions noted are these: 10 µM soybean LPI, or 1 µM ionomycin 5 min. On the procedure:
For stable interference of GPR55, HeLa cells were plated at 1.5 × 10^5 cells/well in six-well plates in growth medium without antibiotics, and 24 h later, the cells were transfected with 1.7 µg/well OmicsLink short hairpin (sh)RNA expression clone CSHCTR001-CU6 (shCTRL) or clone HSH022476-3-CU6 (shGPR55) from GeneCopoeia (Rockville, MD, USA), using Lipofectamine 2000, according the manufacturer instructions. Forty-eight hours after transfection, HeLa clones stably expressing shRNAs were selected in growth medium containing 0.3 µg/mL puromycin. The efficiency of interference was monitored by real-time PCR using the primers listed in the Additional file 1: Table S1. HPRT1 was followed as a housekeeping gene.
Twenty-four hours after transfection (HEK293T, HeLa cells or clones) or 72 h after interference (RAW264.7 cells), the cells were washed twice with HBSS^++, serum deprived (HEK293T cells for 4 h in DMEM; HeLa cells and clones for 2 h in MEM plus 2 mM glutamine and 25 mM HEPES; RAW264.7 cells for 2 h in DMEM), washed once again with HBSS^++, incubated in stimulation buffer (HBSS^++ with 10 mM HEPES, 0.4% faf-BSA for HEK293T cells; HBSS^++ with 25 mM HEPES and 0.01% faf-BSA for HeLa cells, clones, and RAW264.7 cells) in the absence or presence of stimuli, at 37 °C for the indicated times. Incubations were terminated by washing the cells twice with cold HBSS^++, and the analyses were performed as reported below.
Cell lysates were obtained by scraping the cells into phospho-lysis buffer: 50 mM Tris–HCl, pH 7.5, 100 mM NaCl, 5 mM EDTA, 1% Triton X-100, 50 mM NaF, 40 mM β-glycerophosphate, 200 µM sodium orthovanadate, plus protease and phosphatase inhibitors (Roche). […]
Protein lysates were subjected to SDS-PAGE, and after electrophoresis, the proteins were transferred to a nitrocellulose membrane (PerkinElmer Life Science, Boston, MA, USA). […] The membranes were then washed twice with T-TBS and once with TBS for 5 min, and the signals were detected by ECL (Amersham Pharmacia, Piscataway, NJ, USA). […]
(In general: A western blot detects proteins with antibodies after separation by electrophoresis.)

Assay [3] deals with ssGPR55-K80A. Put plainly: GPR55-internalisation assay, K80A mutant (FACS). It is filed as cell-based, human. The conditions noted are these: data not shown. The text has this: The construct of haemagglutinin (HA)-tagged human GPR55 in pcDNA3 (HA-GPR55) was a gift from Prof. K. Mackie, Indiana University, Bloomington, IN, USA [39], while the construct ss-3 × HA-GPR55 in pcDNA3.1 (ssGPR55) with a triple HA tag at the N-terminus and an optimised signal sequence (ss, derived from amino acids 1–33 of the human growth hormone: […]) for efficient surface expression was from Prof. A. Irving, Dundee University, UK [40]. For both constructs, mutations were introduced by site-directed mutagenesis using QuickChange kits (Stratagene, La Jolla, CA, USA), according to the manufacturer instructions. The primers for the K80A mutation were 5′-[…]-3′ and 5′-[…]-3′ (Tm, 70.6 °C), and for Q87A were 5′-[…]-3′ and 5′-[…]-3′ (Tm, 73.1 °C).
HeLa cells were plated at 1.5 × 10^5 cells/well in six-well plates in their growth medium without antibiotics. […]
For the GPR55-internalisation assay, after stimulation, the HeLa cells were washed twice with cold HBSS^++, stained while adhered with the monoclonal anti-HA antibody (1:1000) in PBS plus 3% BSA for 1 h on ice, washed three times with cold PBS, incubated with the Alexa488-tagged anti-mouse antibody (1:800) in PBS plus 3% BSA for 45 min on ice. […] The collected cells were centrifuged at 300×g, suspended in PBS plus 3% BSA, and analysed by FACS.

Assay [4] has as its system human GPR55. To be noted: ref [38]; cited from earlier work. From the text: GPR55 is overexpressed in several tumour cells, with GPR55 expression shown to correlate with tumour aggressiveness and GPR55 activation to promote cancer-cell proliferation both in cell culture and in xenografts in mice. Therefore, we previously attempted to identify peptides that bind to human GPR55, for innovative targeting of GPR55 for potential therapeutic and/or diagnostic applications. Osteoclasts are also among the cells with the highest expression of GPR55 [9], and as GPR55 is involved in their differentiation, its targeting might be instrument ...

Assay [5] has as its system EHEB and DeFew cells (two human B-lymphoblastoid cell lines). The conditions noted are these: ref [38], cited from earlier work.
Assay [6] concerns RAW264.7 cells. Put plainly: Osteoclast syncytium formation (nuclei/cell). The class given is cell-based, murine. The conditions noted are these: 150 nM (0.2 µg/mL) peptide, 72 h RANKL. On the procedure:
(§1) For transient interference of Gpr55, RAW264.7 cells were plated at 6 × 10^5 cells/well in six-well plates in growth medium without antibiotics. Twenty-four hours later, the cells were transfected with 250 pmol/well non-targeting small-interfering (si)RNAs (si-NT; siGENOME siRNA Pool #2; D-001206-14; Dharmacon, Chicago, IL, USA) or Gpr55-specific siRNAs (si-GPR55; siGENOME mouse GPR55 SMART pool; M-043590-01; Dharmacon) using Lipofectamine LTX and Plus Reagent, according to the manufacturer instructions. Twenty-four hours later, the cells were plated for the different assays or for RNA extraction. The efficiency of interference was monitored by real-time PCR after 72 h of interference, using the primers listed in the Additional file 1: Table S1. β2-microglobulin was followed as a housekeeping gene.
For the evaluation of osteoclast syncytium formation, the nuclei of multinucleated cells were counted in a blinded manner using a 63 × objective, moving across the coverslip in the vertical and horizontal directions.
For the osteoclastogenesis in-vitro assay, RAW264.7 cells were plated in differentiation medium (α-MEM with 10% heat-inactivated FBS, 2 mM L-glutamine, 100 U/mL penicillin, and 100 ug/mL streptomycin) at a density of 5 × 10^3 cells/well in 24-well plates on coverslips for morphological analysis, or at 2 × 10^4 cells/well in six-well plates for RNA extraction. […]

The subject of assay [7] is RAW264.7 cells. Put plainly: RANKL-induced transcription of osteoclastogenesis markers in RAW264.7 cells (real-time PCR). The class given is cell-based, murine. The conditions noted are these: 150 nM (0.2 µg/mL) peptide, 15 ng/mL RANKL, 72 h. On the procedure:
Total RNA was extracted using RNeasy isolation kits, cDNAs were obtained using QuantiTect Reverse Transcription kits, and real-time PCRs were performed with QuantiTect SYBR Green PCR kits (all from Qiagen, Hilden, Germany), according to the manufacturer instructions. The primers used for the real-time PCRs and their annealing temperatures are listed in the Additional file 1: Table S1. Human hypoxanthine phosphoribosyltransferase 1 (HPRT1) or murine β2-microglobulin were followed as housekeeping genes. The real-time PCR programme consisted of an initial 15 min at 95 °C, and then 45 cycles as follows: 94 °C for 15 s, annealing temperature of each primer for 30 s, and 72 °C for 30 s. The real-time PCR machine used was a LightCycler 480 Instrument II (Roche, Indianapolis, IN, USA).
as §1
For the osteoclastogenesis in-vitro assay, RAW264.7 cells were plated in differentiation medium (α-MEM with 10% heat-inactivated FBS, 2 mM L-glutamine, 100 U/mL penicillin, and 100 ug/mL streptomycin) at a density of 5 × 10^3 cells/well in 24-well plates on coverslips for morphological analysis, or at 2 × 10^4 cells/well in six-well plates for RNA extraction. Twenty-four hours later and every 48 h, the medium was replaced and the cells were treated with 15–30 ng/mL RANKL with DMSO and/or PBS as carriers, or with GPR55 antagonists/ agonists (0.5 µM ML-191, 30 µM O1918, 0.5 µM CBD, 0.5 μM CID16020046 1 µM soybean LPI, 1 μM ML-184), or with the peptides (150 nM peptide-P1; or the irrelevant peptide, Irr_P). Twenty-four hours after the last addition, the cells were fixed with 4% paraformaldehyde for morphological analyses or harvested for RNA extraction (see above).
A general note: In qPCR the cycle at which signal appears reflects the starting amount.

The target of assay [8] is peptide-P1 (synthetic construct). To be noted: cited from earlier work.
In assay [9] the target is T1, murine GPR55 (Mus musculus, UniProt Q3UJF0).
T1 construct: endogenous in cells; host or cells: RAW264.7 mouse macrophages (wild-type, or treated with si-NT / si-GPR55 siRNAs)
Kind of assay: Peptide binding to intact RAW264.7 cells (FACS). The conditions noted are these: FITC-Scr; si-GPR55 + siGLO relative to si-NT + siGLO; 40 µg/mL, 15 min, 37 °C.
Experimental: Wild-type or 48-h-interfered RAW264.7 cells were plated at a density of 1.2 × 10^6 cells/well in six-well plates, and the following day they were used for on-plate-binding assays, or for RNA extraction. Before peptide addition, the cells were washed twice with HBSS^++, and then incubated without or with 40 µg/mL FITC-P1 or FITC-Scr for the indicated times at 37 °C in HBSS^++ plus 0.01% faf-BSA. The incubations were stopped by three washes with PBS, detached by scraping with PBS plus 2 mM EDTA, and then suspended in PBS plus 3% BSA. Fluorescence intensity was evaluated by FACS, and reported as means of cell-associated fluorescence increases compared to cells incubated in absence of peptides.
To evaluate peptide-P1 specificity towards murine GPR55, RAW264.7 cells were Gpr55-interfered as above, but the duplexes were previously mixed with the double pmol amount of siGLO Red transfection indicator (Dharmacon). […] FITC-fluorescence intensity was evaluated by FACS, and reported as means of cell-associated fluorescence increases compared to cells incubated in absence of peptides.

The target of assay [10] is T2, peptide-P1 (synthetic construct, disulfide 1-9 (inferred)).
T2 chain: {FITC-Ahx}-CKKNSPTLC
Kind of assay: FACS binding of FITC-peptide to RAW264.7 cells. In general terms: Flow cytometry measures light scatter and fluorescence of single cells or particles in a stream.

Like-named read-outs stand apart in the source and are kept apart here. Bridge positions count the residues as written; N and C are the ends. Ends that are not written are not given here. Peptide text beside a SMILES is read from it. * marks the point of attachment. FITC = O=C1OC2(c3ccc(O)cc3Oc3cc(O)ccc32)c2ccc(NC(=S)*)cc21; Ahx = NCCCCCC(=O)O

On to `CC(C)C[C@@H]1NC(=O)[C@H]([C@@H](C)O)NC(=O)[C@@H]2CCCN2C(=O)[C@H](CO)NC(=O)[C@H](CC(N)=O)NC(=O)[C@H](CCCCN)NC(=O)[C@H](CCCCN)NC(=O)[C@@H](NC(=O)CCCCCNC(=S)Nc2ccc3c(c2)C(=O)OC32c3ccc(O)cc3Oc3cc(O)ccc32)CSSC[C@@H](C(=O)O)NC1=O` [FITC-P1] ({FITC-Ahx}-CKKNSPTLC-OH; disulfide 1-9; N-terminus and C-terminus assumed), for which, in assay [1], the Kd was 20 µM.
Consider `C[C@H](CCC(=O)O)C[C@H](C)C[C@H](C)C(=O)/C=C(\O)[C@H](C)C[C@H](C)C/C=C/[C@@H](C)[C@@H](O)[C@@H](C)[C@@H](O)C[C@@H]1CC[C@@](C)([C@H]2CC[C@@](C)([C@@H](C)O)O2)O1` [ionomycin], for which the “ERK1/2 and p38 activation” value in assay [2] is recorded as “still activated these pathways”.
As to “CKKNSPTLC (disulfide 1-9 (inferred)) [peptide-P1]”, the “regulation of wild-type and GPR55-K80A mutant internalisation” value in assay [3] is “comparable regulation of both wild-type and GPR55-K80A mutant internalisation”. For the same molecule, in assay [4], the “competition with LPI action” value is on record as “did not compete with LPI action” and the “human GPR55 internalisation” value was “inducing human GPR55 internalisation in a β-arrestin–independent manner”. The “inhibition of GPR55-dependent proliferation” value in [5] is given as “inhibited GPR55-dependent proliferation of two human B-lymphoblastoid cell lines”. Also, the “inhibition of GPR55-dependent proliferation” value in [5] (listed as Peptide-P1) is “inhibit GPR55-dependent proliferation of EHEB and DeFew cells”. Besides, the “effect on RANKL-induced osteoclast syncytium formation, peptide” value in assay [6] was “did not have any significant effects”. Moreover, in assay [7], the “inhibition of osteoclast maturation (five differentiation markers)” value is reported as “significant inhibition of osteoclast maturation”. In [7] (three independent experiments), the “reduction of RANKL-induced Cathepsin-k mRNA by peptide” value was 40%, the “reduction of RANKL-induced Ctr mRNA by peptide” value came out at 35%, the “reduction of RANKL-induced Mmp-9 mRNA by peptide” value came out at 50% and the “reduction of RANKL-induced Nfatc1 mRNA by peptide” value is listed as 30%. Also, the “reduction of RANKL-induced Trap mRNA by peptide” value in [7] (three independent experiments) came to 35%.
As for GPR55 (from UniProt Q9Y2T6), in assay [8], the Kd was 20 µM.
In the case of “KCLTSNCPK (disulfide 2-7 (inferred)) [FITC-Scr, FITC-conjugated scrambled (…) peptide]”, the “effect of Gpr55 interference on binding” value in assay [9] is “not significantly affected by Gpr55 interference”.

B1: GPR55 (protein)
chain: MSQPERDNCSFDSVDKLTRTLQLAVHIPTFLLGLVLNLLAIRGFSAFLKKRKLDYIATSIYMINLAVFDLLLVLSLPFKMVLPQVESPLPSFCTLVECLYFISMYGSVFTICFISLDRFLAIQYPILASHLRSPRKTFGICCIIWMLVWIGSIPIYTFHREVERYKCFHNMSDVTWSASVFFPLEIFGFLLPMGIMGFCSYRSIHILLRRPDSTEDWVQQRDTKGWVQKRACIWTIATNLVIFVVSFLPVHLGFFLQYLVRNRFILDCRMKQGISLFLQLSLCFSNINCCLDVFCYYFVIKEFRMRIKAHRPSTIKLVNQDTMVSRG
As to B1, in assay [10], the Kd amounted to 22.7 µM.
